Test results as given in ChEMBL document CHEMBL4402569.
Calls of active or inactive are those of the source. The calls are words filed in the database; no cut-off is given here.

Legend:
H5N1 subtype [1] = assay: Antiviral activity against pseudotyped Influenza A virus H5N1 (Goose/Qinghai/59/05) infected in human A549 cells assessed as inhibition of viral replication at 12.5 uM incubated for 48 hrs by luciferase reporter gene assay relative to control; type: functional; details: Goose/Qinghai/59/05, A549, 48 h
Influenza A virus [2] = assay: Antiviral activity against Influenza A virus (A/Puerto Rico/8/1934(H1N1)) infected in MDCK cells incubated for 1 hr and measured after 36 hrs by PR8-PB2 Gaussia luciferase reporter gene assay; type: functional, organism-based
H5N1 subtype [3] = assay: Antiviral activity against pseudotyped Influenza A virus H5N1 (Goose/Qinghai/59/05) infected in human A549 cells assessed as inhibition of viral replication at incubated for 48 hrs by luciferase reporter gene assay; type: functional, organism-based; details: Goose/Qinghai/59/05, A549, 48 h
Influenza A virus [4] = assay: Antiviral activity against Influenza A virus (A/Puerto Rico/8/1934(H1N1)) infected in MDCK cells assessed as combination index at 57 nM incubated for 1 hr and measured after 36 hrs in presence of 156 nM Oseltamivir carboxylate by PR8-NS1 Gaussia luciferase reporter gene assay; type: functional
Influenza A virus [5] = assay: Antiviral activity against Influenza A virus (A/Puerto Rico/8/1934(H1N1)) infected in MDCK cells assessed as combination index at 114 nM incubated for 1 hr and measured after 36 hrs in presence of 156 nM Oseltamivir carboxylate by PR8-NS1 Gaussia luciferase reporter gene assay; type: functional
Influenza A virus [6] = assay: Antiviral activity against Influenza A virus (A/Puerto Rico/8/1934(H1N1)) infected in MDCK cells assessed as combination index at 68 nM incubated for 1 hr and measured after 36 hrs in presence of 156 nM Oseltamivir carboxylate by PR8-NS1 Gaussia luciferase reporter gene assay; type: functional
H5N1 subtype [7] = assay: Antiviral activity against Influenza A virus (A/Viet Nam/1203/2004(H5N1)) infected in human A549 cells assessed as decrease in viral titer at 20 uM by standard plaque assay; type: functional
Influenza A virus [8] = assay: Antiviral activity against Influenza A virus (A/Puerto Rico/8/1934(H1N1)) infected in MDCK cells incubated for 1 hr and measured after 36 hrs by PR8-NS1 Gaussia luciferase reporter gene assay; type: functional, organism-based
Influenza A virus [9] = assay: Antiviral activity against Influenza A virus (A/Puerto Rico/8/1934(H1N1)) infected in MDCK cells assessed as combination index at 83 nM incubated for 1 hr and measured after 36 hrs in presence of 156 nM Oseltamivir carboxylate by PR8-NS1 Gaussia luciferase reporter gene assay; type: functional
Influenza A virus [10] = assay: Antiviral activity against Influenza A virus (A/Puerto Rico/8/1934(H1N1)) infected in MDCK cells assessed as combination index at 35 nM incubated for 1 hr and measured after 36 hrs in presence of 156 nM Oseltamivir carboxylate by PR8-NS1 Gaussia luciferase reporter gene assay; type: functional
Influenza A virus [11] = assay: Antiviral activity against Influenza A virus (A/Puerto Rico/8/1934(H1N1)) infected in MDCK cells assessed as combination index at 49 nM incubated for 1 hr and measured after 36 hrs in presence of 156 nM Oseltamivir carboxylate by PR8-NS1 Gaussia luciferase reporter gene assay; type: functional
Influenza A virus [12] = assay: Antiviral activity against Influenza A virus (A/Puerto Rico/8/1934(H1N1)) infected in MDCK cells assessed as combination index at 42 nM incubated for 1 hr and measured after 36 hrs in presence of 156 nM Oseltamivir carboxylate by PR8-NS1 Gaussia luciferase reporter gene assay; type: functional
Influenza A virus [13] = assay: Antiviral activity against Influenza A virus (A/Puerto Rico/8/1934(H1N1)) infected in human A549 cells assessed as decrease in viral titer at 1 uM by standard plaque assay; type: functional, organism-based
H5N1 subtype [14] = assay: Antiviral activity against Influenza A virus (A/Viet Nam/1203/2004(H5N1)) infected in human A549 cells assessed as decrease in viral titer at 1 uM by standard plaque assay; type: functional, organism-based

SMILES	inhibition at 12.5 µM (H5N1 subtype [1]) [%]	EC50 (Influenza A virus [2]) [µM]	EC50 (H5N1 subtype [3]) [µM]	also measured
CO[C@H]1CN(C(C)C)CC[C@H]1NC(=O)c1c(Cl)cccc1Cl	64	–	–	–
CC(C)N1CCC(N(C)C(=O)c2c(Cl)cccc2Cl)CC1	91	0.724	4.45	–
CC(C)N1CC[C@H](NC(=O)c2ccc(C(F)(F)F)cc2Cl)[C@@H](F)C1	93	0.324	1.16	–
O=C(NC1CCN(C2CCC2)CC1)c1c(Cl)cccc1Cl	76	–	–	–
O=C(NC1CCN(C2CC2)CC1)c1c(Cl)cccc1Cl	33	–	–	–
CC(C)N1CCC2(CC1)OCCN2C(=O)c1c(Cl)cccc1Cl	19	–	–	–
CCC(CC)O[C@@H]1C=C(C(=O)O)C[C@H](N)[C@H]1NC(C)=O [OSELTAMIVIR CARBOXYLATE]	–	–	–	CI (Influenza A virus [4]): 0.61; CI (Influenza A virus [5]): 0.34; CI (Influenza A virus [6]): 0.51; inhibition (H5N1 subtype [7]): inactive; EC30 (Influenza A virus [8]): 0.16 µM; EC40 (Influenza A virus [8]): 0.229 µM; EC50 (Influenza A virus [8]): 0.318 µM; EC60 (Influenza A virus [8]): 0.441 µM; EC70 (Influenza A virus [8]): 0.629 µM; EC80 (Influenza A virus [8]): 0.972 µM; EC90 (Influenza A virus [8]): 1.87 µM; CI (Influenza A virus [9]): 0.42; CI (Influenza A virus [10]): 1.23; CI (Influenza A virus [11]): 0.75; CI (Influenza A virus [12]): 0.94
O=C(NC1CCN(C2CCCCC2)CC1)c1ccc(C(F)(F)F)cc1Cl	98	0.505	0.91	–
CC(C)N1CCC(NC(=O)c2ccccc2C(F)(F)F)CC1	31	–	–	–
CC(C)CN1CCC(NC(=O)c2c(Cl)cccc2Cl)CC1	89	0.852	2.15	–
CC(C)N1CC[C@H](NC(=O)c2c(Cl)cccc2Cl)[C@@H](F)C1	87	0.885	1.81	–
CC(C)N1CC[C@H](NC(=O)c2ccc(C(F)(F)F)cc2Cl)[C@H](F)C1	99	0.195	0.67	inhibition (Influenza A virus [13]): Active; inhibition at 20 µM (H5N1 subtype [7]): 100%; inhibition (H5N1 subtype [14]): Active
CC(C)N1CCC(NC(=O)c2c(Cl)cccc2Cl)CC1	90	0.272	3.04	inhibition (Influenza A virus [13]): Active; inhibition at 20 µM (H5N1 subtype [7]): 100%; inhibition (H5N1 subtype [14]): Active
CC(C)N1CCC(NC(=O)c2ccc([N+](=O)[O-])cc2Cl)CC1	97	0.211	0.72	–
CC(C)N1CCCC(NC(=O)c2c(Cl)cccc2Cl)CC1 (stereo not given)	71	–	–	–
CC(C)N1CCC(NC(=O)c2c(Cl)cccc2C(F)(F)F)CC1	85	0.587	5.62	–
CC(C)N1CCC(NS(=O)(=O)c2ccc(Cl)cc2Cl)CC1	1	–	–	–
